Results published in patent US20050208528A1, “Enhancement of the stability of oligonucleotides comprising phosphorothioate linkages by addition of water-soluble antioxidants” (ISIS Pharmaceuticals, Inc., priority 2001, published 2005).
Counter-ions that a name gives are not always drawn. Like-named read-outs stand apart in the source and are kept apart here. In the oligonucleotide strings, read from the 5' end, every base follows the letter of its sugar. An asterisk marks phosphorothioate; unmarked linkages are phosphodiester. Other units and linkages are bracketed, terminal groups are in braces. A string of capitals states the bases alone. d = 2'-deoxy (DNA)

Tests used:
[1] = test system: phosphorothioate oligonucleotide (ISIS-2302); assay: Desulfurization of phosphorothioate oligonucleotide in mono-phasic system with oil-soluble antioxidants (SAX chromatography); type: physicochemical; conditions: for Full PS content (area-% SAX): 0.5 g PEG-40-monostearate, 1.5 ml phosphate buffer pH 7.0, 1.5 mg ISIS-2302, 65° C. 20 hours, no antioxidants 51.0
Protocol: Polyethyleneglycol-40-monostearate (0.5 g), a water-soluble excipient which forms peroxides in the absence of antioxidants, was heated at 65° C. for 20 hours with 1.5 ml phosphate buffer, pH 7.0 and 1.5 mg phosphorothioate oligonucleotide (ISIS-2302) in the absence or presence of various oil-soluble antioxidants. Oligonucleotides were isolated by ethanol precipitation and phosphorothioate content was determined by strong anion exchange (SAX) chromatography.

ISIS 2302 [2] = assay: Desulfurization in bi-phasic cream formulation with oil-soluble antioxidants, 40° C. for 2 days; type: physicochemical; conditions: for Full PS content (%): 0.03% ISIS 2302, 0 mg gives 83.9; for Full PS content (%) / Protection of phosphorothioate oligonucleotides against desulfurization (in words): 40° C. 2 days; for Protection of phosphorothioate oligonucleotides against desulfurization (in words): biphasic cream
Protocol: (§1) A cream formulation was prepared containing 5.0 g BRIJ 58 (polyoxyethylene[20]cetyl ether), 0.03% ISIS 2302 and different concentrations of phenolic antioxidants.

ISIS 2302 [3] = assay: Desulfurization in bi-phasic cream formulation with water-soluble and oil-soluble antioxidants, 40° C. for 6 days; type: physicochemical; conditions: for Full PS content (%): cream, 0.03% ISIS 2302, 40° C. 6 days, no additive 84.7
Protocol: The cream was heated at 40° C. for 6 days and the oligonucleotide was isolated by ethanol precipitation and analyzed for full PS content by SAX chromatography.

ISIS 2302 [4] = assay: Long-term protection of creams by antioxidants, 40° C. for 1 month; type: physicochemical; design: full PS-content: unit: %; conditions: for full PS-content: cream, 0.03% ISIS 2302, 40° C. 1 month, LC/MS or SAX, no antioxidants 45.1, no excipients 91.3; for Protection against desulfurization (in words): bi-phasic cream formulation
Protocol: as §1

[5] = cited from earlier work
ICAM-1 [6] = conditions: cited from earlier work
ICAM-1 [7] = conditions: C8161 human melanoma cells; cited from earlier work
C8161 cells = conditions: experimental metastasis assay, cited from earlier work
HLA-A and HLA-B = conditions: versus HLA-A and HLA-B; cited from earlier work
[8] = Crohn's disease, rheumatoid arthritis, psoriasis, ulcerative colitis, kidney transplant rejection models; cited from earlier work
[9] = 5 mg antioxidant in 100 g cream
[10] = 10 mg antioxidant in 100 g cream
[11] = 25 mg antioxidant in 100 g cream
[12] = 50 mg antioxidant in 100 g cream
[13] = 75 mg antioxidant in 100 g cream
[14] = 100 mg antioxidant in 100 g cream
[15] = cream with 0.03% ISIS 2302, before heating

## Vitamin E
[1]; 15 mg additive
  Full PS content (area-% SAX): 89.7 area-% SAX
[1]; mono-phasic system
  Protection of phosphorothioate oligonucleotide against desulfurization (in words): inhibit desulfurization
ISIS 2302 [2]; [9]
  Full PS content (%): 84.0%
ISIS 2302 [2]; [10]
  Full PS content (%): 81.9%
ISIS 2302 [2]; [11]
  Full PS content (%): 80.6%
ISIS 2302 [2]; [12]
  Full PS content (%): 78.6%
ISIS 2302 [2]; [13]
  Full PS content (%): 78.7%
ISIS 2302 [2]; [14]
  Full PS content (%): 76.3%
ISIS 2302 [2]
  Protection of phosphorothioate oligonucleotides against desulfurization (in words): do not provide protection
ISIS 2302 [3]; additive 7.4 mg
  Full PS content (%): 83.7%
ISIS 2302 [3]; bi-phasic cream formulation
  Protection from desulfurization (in words): ineffective

## O=S(=O)(O)CCS [2-MESA, Na salt, 2-mercaptoethanesulfonic acid]
ISIS 2302 [4]; additive 0.01%
  full PS-content: 61.2
ISIS 2302 [4]; additive 0.05%
  full PS-content: 71.6
ISIS 2302 [4]; additive 0.2%
  full PS-content: 72.5
ISIS 2302 [4]; additive 0.8%
  full PS-content: 86.7

## N[C@@H](CS)C(=O)O [L-cysteine]
ISIS 2302 [4]; additive 0.01%
  full PS-content: 28.4
ISIS 2302 [4]; additive 0.05%
  full PS-content: 30.8
ISIS 2302 [4]; additive 0.2%
  full PS-content: 67.3
ISIS 2302 [4]; additive 0.8%
  full PS-content: 81.9
ISIS 2302 [4]
  Protection against desulfurization (in words): inhibited desulfurization
ISIS 2302 [3]; additive 0.05 mg
  Full PS content (%): 89.6%
ISIS 2302 [3]; additive 0.2 mg
  Full PS content (%): 91.8%
ISIS 2302 [3]; additive 0.4 mg
  Full PS content (%): 93.6%
ISIS 2302 [3]; additive 1.0 mg
  Full PS content (%): 93.7%
ISIS 2302 [3]; additive 6.1 mg
  Full PS content (%): 93.0%
ISIS 2302 [3]; additive 52.2 mg
  Full PS content (%): 94.5%

## Vitamin E-TPGS
ISIS 2302 [3]; additive 7.5 mg
  Full PS content (%): 84.8%

## ISIS 2302: 2′-deoxyoligonucleotide, phosphorothioate backbone, 5′-GCC-CAA-GCT-GGC-ATC-CGT-CA-3′ (SEQ ID NO:1), targeted to 3′-UTR of human ICAM-1 gene (antisense GCCCAAGCTGGCATCCGTCA; DNA, all phosphorothioate, methylation of C not given here)
[5]; humans
  Activity against Crohn's disease: activity against Crohn's disease
[5]; in vivo
  Safety in humans: good safety
[5]; treated human subjects, five months post-treatment weaned from steroids and in remission
  Steroid-sparing effect: statistically significant steroid-sparing effect
ICAM-1 [6]; human epidermal carcinoma cells (A431)
  ICAM-1 expression: inhibit ICAM-1 expression
ICAM-1 [6]; human keratinocytes
  ICAM-1 expression: inhibit ICAM-1 expression
ICAM-1 [6]; human lung carcinoma cells (A549)
  ICAM-1 expression: inhibit ICAM-1 expression
ICAM-1 [6]; human umbilical vein cells
  ICAM-1 expression: inhibit ICAM-1 expression
ICAM-1 [7]
  ICAM-1 expression (mRNA levels, northern blot): markedly reduced ICAM-1 expression
ISIS 2302 [2]; [15]
  phosphorothioate content of the cream prior to heating: 95%
C8161 cells; TNF-α treated cells
  Enhanced metastatic ability of C8161 cells resulting from TNF-α treatment: eliminated the enhanced metastatic ability
C8161 cells
  Metastatic potential of C8161 cells: decreased the metastatic potential
ISIS 2302 [3]; [15]
  PS content of the cream prior to heating: about 95%
HLA-A and HLA-B
  Specificity for target ICAM-1 over other potential nucleic acid targets: demonstrated specificity for its target ICAM-1
[8]
  Anti-inflammatory effects in animal testing: strong anti-inflammatory effects

## O=C(O)CCCCC1CCSS1 (stereo not drawn) [α-lipoic acid]
ISIS 2302 [4]; additive 0.02%
  full PS-content: 80.2
ISIS 2302 [4]; additive 0.1%
  full PS-content: 84.3
ISIS 2302 [4]; additive 0.45%
  full PS-content: 84.7
ISIS 2302 [4]; additive 1.6%
  full PS-content: 87.6
ISIS 2302 [4]
  Protection against desulfurization (in words): inhibited desulfurization

## ISIS 1939: 2′-deoxyoligonucleotide, phosphorothioate backbone, 5′-CCC-CCA-CCA-CTT-CCC-CTC-TC-3′ (SEQ ID NO:2), targeted to 3′-UTR of human ICAM-1 gene (antisense dC*dC*dC*dC*dC*dA*dC*dC*dA*dC*dT*dT*dC*dC*dC*dC*dT*dC*dT*dC)
ICAM-1 [7]
  ICAM-1 expression (mRNA levels, northern blot): markedly reduced ICAM-1 expression

## N[C@@H](CCC(=O)N[C@@H](CS)C(=O)NCC(=O)O)C(=O)O [Glutathione]
ISIS 2302 [4]; additive 0.01%
  full PS-content: 9.6
ISIS 2302 [4]; additive 0.05%
  full PS-content: 49.4
ISIS 2302 [4]; additive 0.2%
  full PS-content: 50.9
ISIS 2302 [4]; additive 0.8%
  full PS-content: 80.1
ISIS 2302 [4]
  Protection against desulfurization (in words): inhibited desulfurization

## Cc1cccc(C(C)(C)C)c1O [2-t-butyl-6-methylphenol]
[1]; 5 mg additive
  Full PS content (area-% SAX): 93.4 area-% SAX
ISIS 2302 [3]; additive 11.0 mg
  Full PS content (%): 79.0%

## Cc1cc(C(C)(C)C)c(O)c(C(C)(C)C)c1 [BHT, butylated hydroxytoluene]
ISIS 2302 [2]; [9]
  Full PS content (%): 85.8%
ISIS 2302 [2]; [10]
  Full PS content (%): 82.1%
ISIS 2302 [2]; [11]
  Full PS content (%): 80.1%
ISIS 2302 [2]; [12]
  Full PS content (%): 85.4%
ISIS 2302 [2]; [13]
  Full PS content (%): 84.4%
ISIS 2302 [2]; [14]
  Full PS content (%): 85.2%
ISIS 2302 [2]
  Protection of phosphorothioate oligonucleotides against desulfurization (in words): do not provide protection
ISIS 2302 [3]; additive 5.2 mg
  Full PS content (%): 77.3%

## O=S(=O)([O-])c1ccc2[nH]c(S)nc2c1.[Na+] [2-MBSA]
ISIS 2302 [4]; additive 0.01%
  full PS-content: 78.7
ISIS 2302 [4]; additive 0.05%
  full PS-content: 95.2
ISIS 2302 [4]; additive 0.2%
  full PS-content: 96.1
ISIS 2302 [4]; additive 0.8%
  full PS-content: 95.7
ISIS 2302 [4]
  Protection against desulfurization (in words): inhibited desulfurization
ISIS 2302 [3]; additive 4.8 mg
  Full PS content (%): 95.5%
